Measurements from publication PMC12811658, “Design, Synthesis, and Structural Evolution of Pseudo‐Natural Product IDO1 Inhibitors and Degraders” (Angewandte Chemie (International Ed. in English), 2025).

Tested on: Kyn levels in BxPC3 cells (kynurenine generated by IDO1)
Test: Cellular Kyn assay (automated Kyn screening assay)
Type: cell-based
Details: for IC50: Homo sapiens, BXPC-3, 48 h, IFN-γ, L-Trp and compounds 48 h, mean ± SD, read-out: IC50 (Kyn assay), reduction of kynurenine levels

SMILES | IC50 | activity in cellular Kyn assay (in words)
CC(C)(C)c1ccc(S(=O)(=O)N2C[C@@H]3C[C@@H]4[C@H](C[C@]3(COC(=O)Nc3ccc(I)cc3)C2)C4(C)C)cc1 [compound 21, ((3aR,4aS,5aR,6aR)-2-((4-(tert-butyl)phenyl)sulfonyl)-5,5-dimethyloctahydrocyclopropa[f]isoindol-3a(1H)-yl)methyl (4-iodophenyl)carbamate] |  | inactive
CC(C)[C@]12CC(OC(=O)Nc3ccc(I)cc3)[C@]3(CCN(S(=O)(=O)c4ccc(C(C)(C)C)cc4)C3)[C@H]1C2 (stereo partly drawn) [compound 24, (1S,2R,5S)-1'-((4-(tert-butyl)phenyl)sulfonyl)-5-isopropylspiro[bicyclo[3.1.0]hexane-2,3'-pyrrolidin]-3-yl (4-iodophenyl)carbamate] |  | inactive
CC1(C)[C@H]2C[C@@H]3CN(S(=O)(=O)c4ccc([Si](C)(C)C)cc4)C[C@]3(COC(=O)Nc3ccc(I)cc3)[C@@H]1C2 [compound 77, ((3aS,4R,6R,7aS)-5,5-dimethyl-2-((4-(trimethylsilyl)phenyl)sulfonyl)octahydro-3aH-4,6-methanoisoindol-3a-yl)methyl (4-iodophenyl)carbamate] | 0.26 ± 0.09 µM | 
Cc1cccc(S(=O)(=O)N2C[C@H]3C[C@H]4C[C@H](C4(C)C)[C@@]3(COC(=O)Nc3ccc(I)cc3)C2)c1 [compound 67, ((3aS,4R,6R,7aS)-5,5-dimethyl-2-(m-tolylsulfonyl)octahydro-3aH-4,6-methanoisoindol-3a-yl)methyl (4-iodophenyl)carbamate] | 1.1 ± 0.5 µM | 
CC(C)(C)c1ccc(S(=O)(=O)N2C[C@H]3C[C@H]4C[C@H](C4(C)C)[C@@]3(COC(=O)Nc3cccc(N=[N+]=[N-])c3)C2)cc1 [compound 41, ((3aS,4R,6R,7aS)-2-((4-(tert-butyl)phenyl)sulfonyl)-5,5-dimethyloctahydro-3aH-4,6-methanoisoindol-3a-yl)methyl (3-azidophenyl)carbamate] | > 10 µM | 
COc1ccc(S(=O)(=O)N2C[C@H]3C[C@H]4C[C@H](C4(C)C)[C@@]3(COC(=O)Nc3ccc(C)cc3)C2)cc1 [compound 57, ((3aS,4R,6R,7aS)-2-((4-methoxyphenyl)sulfonyl)-5,5-dimethyloctahydro-3aH-4,6-methanoisoindol-3a-yl)methyl p-tolylcarbamate] | > 10 µM | 
CC(C)c1ccc(S(=O)(=O)N2C[C@H]3C[C@H]4C[C@H](C4(C)C)[C@@]3(COC(=O)Nc3ccc(I)cc3)C2)cc1 [compound 69, ((3aS,4R,6R,7aS)-2-((4-isopropylphenyl)sulfonyl)-5,5-dimethyloctahydro-3aH-4,6-methanoisoindol-3a-yl)methyl (4-iodophenyl)carbamate] | 0.14 ± 0.02 µM | 
CC(C)(C)c1ccc(S(=O)(=O)N2C[C@H]3C[C@H]4C[C@H](C4(C)C)[C@@]3(COC(=O)Nc3cccc(Br)c3)C2)cc1 [compound 39, ((3aS,4R,6R,7aS)-2-((4-(tert-butyl)phenyl)sulfonyl)-5,5-dimethyloctahydro-3aH-4,6-methanoisoindol-3a-yl)methyl (3-bromophenyl)carbamate] | 9.9 ± 1.58 µM | 
CC(C)(C)c1ccc(S(=O)(=O)N2C[C@H]3C[C@H]4C[C@H](C4(C)C)[C@@]3(COC(=O)Nc3ccc(C#CCCO)cc3)C2)cc1 [compound 53, ((3aS,4R,6R,7aS)-2-((4-(tert-butyl)phenyl)sulfonyl)-5,5-dimethyloctahydro-3aH-4,6-methanoisoindol-3a-yl)methyl (4-(4-hydroxybut-1-yn-1-yl)phenyl)carbamate] | 2.5 ± 0.2 µM | 
CC1(C)[C@H]2C[C@@H]3CN(S(=O)(=O)c4cccs4)C[C@]3(COC(=O)Nc3ccc(I)cc3)[C@@H]1C2 [compound 63, ((3aS,4R,6R,7aS)-5,5-dimethyl-2-(thiophen-2-ylsulfonyl)octahydro-3aH-4,6-methanoisoindol-3a-yl)methyl (4-iodophenyl)carbamate] | 3.5 ± 0.3 µM | 
Cc1ccc(NC(=O)OC[C@]23CN(S(=O)(=O)c4ccc(C(F)(F)F)cc4)C[C@H]2C[C@H]2C[C@@H]3C2(C)C)cc1 [compound 56, ((3aS,4R,6R,7aS)-5,5-dimethyl-2-((4-(trifluoromethyl)phenyl)sulfonyl)octahydro-3aH-4,6-methanoisoindol-3a-yl)methyl p-tolylcarbamate] | 2.5 ± 1.1 µM | 
CC1(C)[C@H]2C[C@@H]3CN(S(=O)(=O)c4ccc(C5CCCCC5)cc4)C[C@]3(COC(=O)Nc3ccc(I)cc3)[C@@H]1C2 [compound 71, ((3aS,4R,6R,7aS)-2-((4-cyclohexylphenyl)sulfonyl)-5,5-dimethyloctahydro-3aH-4,6-methanoisoindol-3a-yl)methyl (4-iodophenyl)carbamate] | 1.1 ± 0.3 µM | 
Cc1ccc(NC(=O)NC[C@]23CN(S(=O)(=O)c4ccc(C(C)(C)C)cc4)C[C@H]2C[C@H]2C[C@@H]3C2(C)C)cc1 [compound 7, 1-(((3aR,4R,6R,7aS)-2-((4-(tert-butyl)phenyl)sulfonyl)-5,5-dimethyloctahydro-3aH-4,6-methanoisoindol-3a-yl)methyl)-3-(p-tolyl) urea] |  | did not improve activity

The next lines start with results.

IC50 | SMILES | activity in cellular Kyn assay (in words)
4.7 ± 0.41 µM | Cc1ccc(NC(=O)OC[C@]23CN(S(=O)(=O)C(C)C)C[C@H]2C[C@H]2C[C@@H]3C2(C)C)cc1 [compound 54, ((3aS,4R,6R,7aS)-2-(isopropylsulfonyl)-5,5-dimethyloctahydro-3aH-4,6-methanoisoindol-3a-yl) methyl p-tolylcarbamate] | 
0.25 ± 0.08 µM | CCOC(=O)C(C)(C)c1ccc(S(=O)(=O)N2C[C@H]3C[C@H]4C[C@H](C4(C)C)[C@@]3(COC(=O)Nc3ccc(I)cc3)C2)cc1 [compound 89, Ethyl 2-(4-(((3aS,4R,6R,7aS)-3a-((((4-iodophenyl)carbamoyl)oxy)methyl)-5,5-dimethyloctahydro-2H-4,6-methanoisoindol-2-yl)sulfonyl)phenyl)-2-methylpropanoate] | 
7.3 ± 1.4 µM | CC(C)(C(=O)N1CCOCC1)c1ccc(S(=O)(=O)N2C[C@H]3C[C@H]4C[C@H](C4(C)C)[C@@]3(COC(=O)Nc3ccc(I)cc3)C2)cc1 [compound 86, ((3aS,4R,6R,7aS)-5,5-dimethyl-2-((4-(2-methyl-1-morpholino-1-oxopropan-2-yl)phenyl)sulfonyl)octahydro-3aH-4,6-methanoisoindol-3a-yl)methyl (4-iodophenyl)carbamate] | 
0.89 ± 0.18 µM | CC(C)(C)c1ccc(S(=O)(=O)N2C[C@H]3C[C@H]4C[C@H](C4(C)C)[C@@]3(COC(=O)Nc3ccccc3I)C2)cc1 [compound 37, ((3aS,4R,6R,7aS)-2-((4-(tert-butyl)phenyl)sulfonyl)-5,5-dimethyloctahydro-3aH-4,6-methanoisoindol-3a-yl)methyl (2-iodophenyl)carbamate] | 
6.2 ± 1.7 µM | Cc1ccc(NC(=O)OC[C@]23CN(S(=O)(=O)c4ccccc4Br)C[C@H]2C[C@H]2C[C@@H]3C2(C)C)cc1 [compound 59, ((3aS,4R,6R,7aS)-2-((2-bromophenyl)sulfonyl)-5,5-dimethyloctahydro-3aH-4,6-methanoisoindol-3a-yl)methyl p-tolylcarbamate] | 
5.1 ± 0.4 µM | Cc1ccc(NC(=O)OC[C@]23CN(S(=O)(=O)C4CCCCC4)C[C@H]2C[C@H]2C[C@@H]3C2(C)C)cc1 [compound 55, ((3aS,4R,6R,7aS)-2-(cyclohexylsulfonyl)-5,5-dimethyloctahydro-3aH-4,6-methanoisoindol-3a-yl)methyl p-tolylcarbamate] | 
0.23 ± 0.05 µM | CC(C)(C)c1ccc(S(=O)(=O)N2C[C@H]3C[C@H]4C[C@H](C4(C)C)[C@@]3(COC(=O)Nc3ccc(Br)cc3)C2)cc1 [compound 36, ((3aS,4R,6R,7aS)-2-((4-(tert-butyl)phenyl)sulfonyl)-5,5-dimethyloctahydro-3aH-4,6-methanoisoindol-3a-yl)methyl (4-bromophenyl)carbamate] | 
0.19 ± 0.07 µM | CCC(C)(C)c1ccc(S(=O)(=O)N2C[C@H]3C[C@H]4C[C@H](C4(C)C)[C@@]3(COC(=O)Nc3ccc(I)cc3)C2)cc1 [compound 75, ((3aS,4R,6R,7aS)-5,5-dimethyl-2-((4-(tert-pentyl)phenyl)sulfonyl)octahydro-3aH-4,6-methanoisoindol-3a-yl)methyl (4-iodophenyl)carbamate] | 
2.5 ± 0.1 µM | CN(C)CC(C)(C)c1ccc(S(=O)(=O)N2C[C@H]3C[C@H]4C[C@H](C4(C)C)[C@@]3(COC(=O)Nc3ccc(I)cc3)C2)cc1 [compound 88, ((3aS,4R,6R,7aS)-2-((4-(1-(dimethylamino)-2-methylpropan-2-yl)phenyl)sulfonyl)-5,5-dimethyloctahydro-3aH-4,6-methanoisoindol-3a-yl)methyl (4-iodophenyl)carbamate] | 
2.9 ± 0.3 µM | CCc1ccc(NC(=O)OC[C@]23CN(S(=O)(=O)c4ccc(C(C)(C)C)cc4)C[C@H]2C[C@H]2C[C@@H]3C2(C)C)cc1 [compound 28, ((3aS,4R,6R,7aS)-2-((4-(tert-butyl)phenyl)sulfonyl)-5,5-dimethyloctahydro-3aH-4,6-methanoisoindol-3a-yl)methyl (4-ethylphenyl)carbamate] | 
> 10 µM | CC(C)(C)c1ccc(S(=O)(=O)N2C[C@H]3C[C@H]4C[C@H](C4(C)C)[C@@]3(COC(=O)Nc3ccc(C(F)(F)F)cc3)C2)cc1 [compound 45, ((3aS,4R,6R,7aS)-2-((4-(tert-butyl)phenyl)sulfonyl)-5,5-dimethyloctahydro-3aH-4,6-methanoisoindol-3a-yl)methyl (4-(trifluoromethyl)phenyl)carbamate] | 
0.51 ± 0.08 µM | CC(C)(C)c1ccc(S(=O)(=O)N2C[C@H]3C[C@H]4C[C@H](C4(C)C)[C@@]3(COC(=O)Nc3ccc(Cl)cc3)C2)cc1 [compound 35, ((3aS,4R,6R,7aS)-2-((4-(tert-butyl)phenyl)sulfonyl)-5,5-dimethyloctahydro-3aH-4,6-methanoisoindol-3a-yl)methyl (4-chlorophenyl)carbamate] | 
0.72 ± 0.27 µM | Cc1ccc(S(=O)(=O)N2C[C@H]3C[C@H]4C[C@H](C4(C)C)[C@@]3(COC(=O)Nc3ccc(I)cc3)C2)cc1 [compound 68, ((3aS,4R,6R,7aS)-5,5-dimethyl-2-tosyloctahydro-3aH-4,6-methanoisoindol-3a-yl)methyl (4-iodophenyl)carbamate] | 
